Experimental data reported in US20230404998A1, “Combination Therapies for Treating Cancer” (ASCENTAGE PHARMA (SUZHOU) CO., LTD., priority 2020, published 2023).
Marks after values point to notes of the source that are not given here.

Tests used:
Set-up in all cases: species or system mouse
Conditions in all cases: ABL001 60 mg/kg, Ponatinib 20 mg/kg, HQP1351 20 mg/kg
[1] = system: E255V/T315I orthotopic tumor model; assay: In vivo efficacy, E255V/T315I orthotopic tumor model
Description: (§1) In vivo efficacy was evaluated using the syngeneic mouse model derived from BaF3 cells with T315I and/or compound mutations. Tumor models were established by intravenously injecting tumor cells (1×10^5/mouse) into the caudal vein under sterile conditions. Mice were randomized into control and treatment groups with 8-10 mice per group and start the treatment from the second day post inoculation. The animal body weights were measured twice a week. The antitumor activity curves of test articles were plotted with the treatment time (day) on the X-axis, and corresponding survival rate on the Y-axis. A Log-rank (Mental-cox) test was employed to analyze the statistical significance of any difference between the treatment group and the control group. Prism version 7 (GraphPad Software Inc., San Diego, CA) was used for all statistical analysis and for graphic presentation.

[2] = system: F317L/T315I orthotopic tumor model; assay: In vivo efficacy, F317L/T315I orthotopic tumor model
Description: as §1

[3] = system: Y253H/T315I orthotopic tumor model; assay: In vivo efficacy, Y253H/T315I orthotopic tumor model
Description: as §1

[4] = system: T315I orthotopic tumor model; assay: In vivo efficacy, T315I orthotopic tumor model
Description: as §1

Structure (SMILES)	Median survival [1]	Survival prolongation (%) [1]	Survive/Total @ D26 [1]	Median survival [2]	Survival prolongation (%) [2]	Survive/Total @ 24 [2]	Median survival [3]	Survival prolongation (%) [3]	Survive/Total @ 24 [3]	Median survival [4]	Survival prolongation (%) [4]	Survive/Total @ D43 [4]
O=C(Nc1ccc(OC(F)(F)Cl)cc1)c1cnc(N2CC[C@@H](O)C2)c(-c2cc[nH]n2)c1 [ABL001, asciminib]	27.0****	28.57%	0/10	18.0	2.86%	0/8	21.0***	23.53%	0/8	24.5****	16.67%	0/10
Cc1ccc(C(=O)Nc2ccc(CN3CCN(C)CC3)c(C(F)(F)F)c2)cc1C#Cc1cnc2cccnn12 [Ponatinib]	24.5****	16.67%	0/10	27.0****	54.29%	1/8	20.0**	17.65%	0/8	27.0****	28.57%	0/10
